Data as given in patent US20040002842A1, “Methods and systems for analyzing complex biological systems” (priority 2001, published 2004).

Key:
Format in all cases: cell-based
[1] = system: Saccharomyces cerevisiae wild type strain BY4743; experiment: AF1 combined gene expression and metabolite data (reactions, pathways, cluster analysis)
Text: The data were then combined to determine the number of reactions showing an enzyme and at least one compound perturbed, and to determine the number of pathways having at least one enzyme and one perturbed compound perturbed. The results of the analysis are represented in Tables 16 and 17, and were difficult to interpret, illustrating that the ability to draw conclusions from compound mapping to pathways is limited when absent additional data. […] A coherent data set was created from data obtained from the four above-described drug compounds. The data were reduced by using principle components analysis and cluster analysis.

[2] = system: Saccharomyces cerevisiae wild type strain BY4743; experiment: AF1 yeast metabolite analysis by GC-MS and LC-MS; conditions: for # Compounds perturbed by treatment: 2×MIC, two hours
[3] = system: Saccharomyces cerevisiae wild type strain BY4743; experiment: AF1 yeast gene expression analysis (microarray, KEGG pathway mapping); conditions: for # Transcripts perturbed by treatment: 2×MIC, two hours; for Number of Pathways Affected by at Least One Gene, # Pathways: p < 0.05, KEGG mapping
Description: Saccharomyces cerevisiae wild type strain BY4743 was purchased from American Type Culture Center (ATCC, Manassas, Va.). The yeast strain was grown in YPD or SD media. H. […] The cultures started from fresh single colonies were grown in 1.0 ml YPD overnight at 30° C. […] The OD600 was adjusted to 1.0 with YPD media, then 2.0 ml of each was inoculated into three 250 ml flasks, each containing 50 ml of SD media. […] The cells were kept growing for another two hours, then collected by centrifugation at 4000 rpm for 5 minutes at 4° C. Pellets were washed once with ice-cold water, then were lyophilized overnight at 4° C. […] Tubes were vortexed for 30 seconds, then incubated for 10 minutes at room temperature (RT). […] Tubes were incubated for 10 minutes at RT. Samples were centrifuged for 20 minutes as before. Pellets were washed with 400 μl 70% ethanol and centrifuged for 10 minutes as before. The pellet was then dissolved in 100 μl nuclease-free water. RNA quality was determined using the Bioanalyzer 2100 and the RNA 6000 assay (Agilent Technologies, Palo Alto, Calif.) according to manufacturer's instructions. RNA concentrations were determined spectrophotometrically by measuring the absorption at 260 nm in an Ultrospec 2000 (Pharmacia Biotech, Piscataway, N.J.). […] Labeled cRNAs were evaluated using the RNA 6000 assay on the Agilent Bioanalyzer 2100. Labeled cRNA concentrations were determined spectrophotometrically by measuring the absorption at 260 nm in an Ultrospec 2000 (Pharmacia Biotech, Piscataway, N.J.). […] Each pair of samples to be hybridized were independently labeled and hybridized utilizing a fluor reversal for a total of two hybridizations per sample pair. The microarrays were scanned simultaneously in the Cy3 and Cy5 channels with Agilent's 48-slide, Dual Laser DNA Microarray Scanner (Agilent Technologies, Palo Alto, Calif.) at 10 μm resolution using default settings. Image Analysis Software (Version A.4.0.45, Agilent Technologies, Palo Alto, Calif.) was used for image analysis. Each feature was determined from an array's associated pattern file and a detection algorithm. Intensity values for each feature were determined after subtracting background derived from an average of negative control features. Features with unusual pixel intensity statistics (e.g., high non-uniformity, saturation in either channel, and the like) were excluded from downstream analyses. Data was loaded into the Rosetta RESOLVER database (Rosetta Inpharmatics Inc., Kirkland, Wash.) for storage and analysis. Data was evaluated after combining results from fluor reversal replicate hybridizations. The annotation of yeast ORFs was obtained from Proteome BIOKNOWLEDGE Library (Incyte Genomics, Palo Alto, Calif.). In AF1, two different technologies were utilized: gene expression analysis (for examination of mRNA expression) and metabolite analysis. […] As noted previously, existing metabolic databases may be helpful in practicing the methods and systems of the present invention, but many databases include limitations that make their use in data analysis and pathway mapping less than straightforward. […] This caveat to KEGG makes it difficult to pinpoint the correct pathway when attempting to link a gene to a specific pathway. The pathway score indicates how meaningful the mapping is, or how likely it is to be correctly indicative of the pathway involved in the perturbation under examination. The method provides a pathway score based on perturbation levels of genes and/or compounds and the information content of each gene and/or compound in the pathway, i.e., a pathway score indicates the extent to which other pathways are mapped to a gene/compound. For example, imagine that two genes are perturbed in a particular experiment.

With `C[C@@H]1[C@H](O)[C@@H](C)/C=C/C=C/C=C/C=C/C=C/C=C/C=C/[C@H](O[C@@H]2O[C@H](C)[C@@H](O)[C@H](N)[C@@H]2O)C[C@@H]2O[C@](O)(C[C@@H](O)C[C@@H](O)[C@H](O)CC[C@@H](O)C[C@@H](O)CC(=O)O[C@H]1C)C[C@H](O)[C@H]2C(=O)O` [Amphoteracin B] the “Number of Reactions Having an Enzyme and at Least One Compound Perturbed, # Reactions” value (shortened to “Number … # Reactions”) [1] was 54, the “# Compounds perturbed by treatment” value ([2]; P < 0.05) was 16 and the “# Compounds perturbed by treatment” value ([2]; P < 0.1) was 21. The “# Transcripts perturbed by treatment” value ([3]; P < 0.05) was 4363, the “# Transcripts perturbed by treatment” value ([3]; P < 0.1) was 4652 and the “Number of Pathways Affected by at Least One Gene, # Pathways” value (“Number of Pathways Affected” below) [3] was 97.
In the case of `OC(Cn1cncn1)(Cn1cncn1)c1ccc(F)cc1F` [Fluconazole], the “Number … # Reactions” value [1] is reported as 2, the “# Compounds perturbed by treatment” value ([2]; P < 0.05) is reported as 2 and the “# Compounds perturbed by treatment” value ([2]; P < 0.1) is reported as 6. For the same compound, the “Fold Change: TMS mevalonic acid lactone” value ([2]; Platform GC) was 0.1434, the “Fold Change: squalene” value ([2]; Platform GC) was 0.1999 and the “Fold Change: sugar?” value ([2]; Platform GC) was 0.4817. The “Fold Change: tetradecanoic acid” value ([2]; Platform GC) was 0.07967, the “Fold Change: threonine2” value ([2]; Platform GC) was 0.5053 and the “Fold Change: threonine3” value ([2]; Platform GC) was 0.2513. For the same compound, the “Fold Change: tms glutamine3” value ([2]; Platform GC) was 0.7271, the “Fold Change: tms lysine4” value ([2]; Platform GC) was 0.3657 and the “Fold Change: tms tyrosine2” value ([2]; Platform GC) was 0.8643. For the same compound, the “Fold Change: tms tyrosine3” value ([2]; Platform GC) was 0.3321, the “Fold Change: valine” value ([2]; Platform GC) was 0.2727 and the “Fold Change, benzoic acid” value ([2]; Platform nLC) was 0. For the same compound, the “Fold Change: retinoic acid” value ([2]; Platform nLC) was 0, the “Fold Change: salicylic/HObenzoic” value ([2]; Platform nLC) was 0 and the “Fold Change: selenoDLmethionine” value ([2]; Platform nLC) was −0.5748. For the same compound, the “Fold Change: serine” value ([2]; Platform nLC) was 0.3936, the “Fold Change: shikimic acid” value ([2]; Platform nLC) was 0 and the “Fold Change: sinapinic acid” value ([2]; Platform nLC) was 0. The “Fold Change: sorbitol/mannitol” value ([2]; Platform nLC) was 0.365, the “Fold Change: succinic” value ([2]; Platform nLC) was 0.3094 and the “Fold Change: sucrose” value ([2]; Platform nLC) was 0.3104. The “Fold Change: sugar-phosphate” value ([2]; Platform nLC) was −0.05306, the “Fold Change: tetradecanoic acid” value ([2]; Platform nLC) was 0.5495 and the “Fold Change: threonine/homoserin” value ([2]; Platform nLC) was 0.3257. The “Fold Change: thymine” value ([2]; Platform nLC) was 0, the “Fold Change: tryptophan” value ([2]; Platform nLC) was 1.649 and the “Fold Change: tyrosine” value ([2]; Platform nLC) was 0.2303. For the same compound, the “Fold Change: uracil” value ([2]; Platform nLC) was 1.256, the “Fold Change: uridine” value ([2]; Platform nLC) was 0.3463 and the “Fold Change: urocanic acid” value ([2]; Platform nLC) was 0. The “Fold Change: valine” value ([2]; Platform nLC) was 0.3235, the “Fold Change: xanthosineDiH2O” value ([2]; Platform nLC) was 0 and the “Fold Change: zeatin” value ([2]; Platform nLC) was 0. For the same compound, the “Fold Change: riboflavin” value ([2]; Platform pLC) was 0, the “Fold Change: selenoDLmethionine” value ([2]; Platform pLC) was −0.6865 and the “Fold Change: serine” value ([2]; Platform pLC) was 0.11. For the same compound, the “Fold Change: sugar-phosphate” value ([2]; Platform pLC) was 0, the “Fold Change: thiamine” value ([2]; Platform pLC) was 0 and the “Fold Change: threonine/homoserin” value ([2]; Platform pLC) was 0.1604. For the same compound, the “Fold Change: thymine” value ([2]; Platform pLC) was 0, the “Fold Change: tryptophan” value ([2]; Platform pLC) was 0 and the “Fold Change: tyrosine” value ([2]; Platform pLC) was 0.1099. The “Fold Change: uric acid” value ([2]; Platform pLC) was 0, the “Fold Change: urocanic acid” value ([2]; Platform pLC) was 0 and the “Fold Change: xanthosine(diH2O)” value ([2]; Platform pLC) was 0. The “Fold Change: zeatin” value ([2]; Platform pLC) was 0 and the “Number of Pathways Affected” value [3] was 79.
`CC(=O)N1CCN(c2ccc(OCC3COC(Cn4ccnc4)(c4ccc(Cl)cc4Cl)O3)cc2)CC1` (centres unmarked) [Ketoconazole] was tested, and the “Number … # Reactions” value [1] was 21, the “# Compounds perturbed by treatment” value ([2]; P < 0.1) was 15 and the “Number of Pathways Affected” value [3] was 90.
